# Assay results reported in US20230174523A1, “BENZENESULFONAMIDE DERIVATIVES AS TRAP1 MODULATORS AND USES THEREOF” (Amathus Therapeutics, Inc., priority 2020, published 2023).
# Assays:
# [1] = target: T1, TRAP1 enzyme (Homo sapiens, UniProt Q12931); test: ADP Glo assay of TRAP1 ATPase activity; type: biochemical
# T1 sequence (Q12931 60-704): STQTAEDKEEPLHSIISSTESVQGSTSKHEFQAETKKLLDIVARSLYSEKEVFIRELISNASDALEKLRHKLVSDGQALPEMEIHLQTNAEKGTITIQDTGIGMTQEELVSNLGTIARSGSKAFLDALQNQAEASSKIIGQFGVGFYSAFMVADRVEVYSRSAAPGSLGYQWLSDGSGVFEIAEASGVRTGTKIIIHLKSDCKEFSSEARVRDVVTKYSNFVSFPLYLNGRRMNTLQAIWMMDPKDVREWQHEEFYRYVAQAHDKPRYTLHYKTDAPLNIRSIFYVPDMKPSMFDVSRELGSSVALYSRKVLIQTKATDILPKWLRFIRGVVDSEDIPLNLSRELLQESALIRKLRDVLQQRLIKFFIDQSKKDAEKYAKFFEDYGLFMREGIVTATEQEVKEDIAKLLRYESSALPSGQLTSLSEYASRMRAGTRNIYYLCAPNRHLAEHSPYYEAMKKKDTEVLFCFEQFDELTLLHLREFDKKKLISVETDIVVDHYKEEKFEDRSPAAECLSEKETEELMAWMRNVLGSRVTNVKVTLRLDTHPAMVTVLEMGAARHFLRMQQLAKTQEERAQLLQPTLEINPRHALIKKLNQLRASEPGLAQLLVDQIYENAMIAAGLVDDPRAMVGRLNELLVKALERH
# Method in brief: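 150 nM TRAP1 preincubated with compound (0.79–100 μM) 30 min at 37° C in Pipes pH 7.5 buffer (0.05 mM MgCl2, 40 mM KCl), then 20 μM ATP added for 60 min at 37° C. ADP quantified by ADP-Glo luminescence against ATP/ADP standard curve. Emax and EC50 from sigmoidal fit.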
# [2] = tested on: primary rat TH+ dopaminergic neurons; test: ROS production in primary TH+ dopaminergic neurons injured with MPP+; type: cell-based; conditions: injury with MPP+ (4 μM, 4 h); FIG. 6
# Description: Rat dopaminergic neurons were cultured as described by Visanji et al., 2008. Briefly, pregnant female rat of 15 days of gestation are sacrificed using a deep anesthesia with CO2 chamber and a cervical dislocation. The midbrains obtained from 15-day-old rat embryos are dissected under a microscope. The embryonic midbrains are removed and placed in ice-cold medium of Leibovitz (L15) containing 2% of Penicillin-Streptomycin (PS) and 1% of bovine serum albumin (BSA). The ventral portion of the mesencephalic flexure, a region of the developing brain rich in dopaminergic neurons, is used for the cell preparations.
# The midbrains are dissociated by trypsinisation for 20 min at 37° C. (solution at a final concentration of 0.05% trypsin and 0.02% EDTA). […] Viable cells are counted in a Neubauer cytometer using the trypan blue exclusion test. […] Six wells per condition are assessed. […]
# For each condition, 20 pictures at 10× magnification (plate 1) or 30 pictures at 20× magnification (representing the whole well area) were automatically taken using ImageXpress®. […] The following read-outs were measured: Analysis of total number of TH neurons (TH positive neuron number), Analysis of the ROS into TH positive neurons, Analysis of caspase 3 positive TH neurons, and Analysis of total neurite network of TH positive neurons (in μm).
# All values are expressed as mean+/−SEM (standard error of the mean). […]
smiles,measurement,setting,value
Cc1nn(C)c2sc(C(=O)Nc3ccc(F)c(S(=O)(=O)Nc4ccc(Cl)cc4)c3)cc12 [Compound 705],EC50,"[1]; TRAP1 ATPase activation, 150 nM Trap1, 20 μM ATP, geometric mean, read-out: ADP GLO DRC: GeoMean EC50",10 to 20 µM
same,Emax,[1]; read-out: ADP GLO DRC: Mean Emax,160 to 199%
same,reactive oxygen species (ROS) production,[2],reduction of ROS
